According to patent US20160082036A1, “HYDROXYALKYL STARCH FOR THE TREATMENT OF CANCERS BY REDUCTION OF TUMOR GROWTH RATES” (Fresenius Kabi Deutschland GmbH, priority 2012, published 2016):

Key:
[1] = Example 1: body weight and blood parameters of MT-3 tumor-bearing mice; assay type: in vivo, NMRI:nu/nu mice
Description: Summary: Mice were either treated with a single i.v. injection of docetaxel (Taxotere®) at a dose of 25 mg/kg or with the plasma expander Voluven® (20 ml/kg) or with “HES 100/1.0” (approx. 740 mg/kg) dissolved in saline to determine tumor growth and body weight over the course of the experiment.
(§1) Adult female NMRI:nu/nu mice (TACONIC Europe, Lille Skensved, Denmark) bred in the own (EPO) colony were used throughout the study.
(§2) The application volume was 10 ml/kg (approx. 200 μl/20 g mouse) mouse body weight for vehicle, HES 100/1.0 and docetaxel and 20 ml/kg for Voluven®. The route of administration was by intravenous (i.v.) injection into the tail vein.
Individual body weights of mice were determined two times weekly and mean body weight per treatment group.
Blood samples were drawn from the retro-orbital sinus under iso-flurane anaesthesia three days after the treatment. Blood samples of 50-100 μl were taken into tubes prepared with EDTA for haematological parameters from a subset of each group (generally 30-50%). The following parameters were determined: total leucocyte count (WBC), erythrocyte count (RBC), haemoglobin (HGB), haematocrit (HCT), mean corpuscular volume (MCV), mean corpuscular haemoglobin (MCH), mean corpuscular haemoglobin concentration (MCHC) and platelet count (PLT) using a Coulter Counter instrument.
(§3) Statistical evaluation of was performed with the U-test of Mann and Whitney using the Windows program […] 6. A significance level of p<0.05 was used.

[2] = tested on: human breast cell carcinoma line MT-3; assay: Example 2: MT-3 xenograft tumor growth after single i.v. injection; assay type: in vivo
Description: Summary: Mice were either treated with a single i.v. injection of docetaxel (Taxotere®) at a dose of 25 mg/kg or with the plasma expander Voluven® (20 ml/kg) or with HES 100/1.0 (approx. 740 mg/kg) dissolved in saline/EtOH to determine tumor growth and body weight over the course of the experiment.
Docetaxel (available under the name Taxotere®) was obtained from Sanofi-Aventis Deutschland GmbH, (Lot CHB D9C895; Berlin, Germany) and was stored in the dark at −20° C. until use. […] HES 100/1.0 (as specified in table 2 above) was dissolved in saline/EtOH.
The final solution of docetaxel was prepared immediately before injection by mixing an appropriate volume of the original stock solution provided by Sanofi (20 mg/ml) with saline (0.9% NaCl, B. Braun Melsungen AG, Melsungen, Germany) as indicated in the table 6 below. Saline was mixed with absolute ethanol to obtain an approx. 6.25% solution, the original vehicle of Taxotere®. Voluven® was used in the original formulation described above.
as §1
The MT-3 cell line was used for subcutaneous (s.c.) xenotransplantation in immune deficient female NMRI:nu/nu mice. The MT-3 breast carcinoma cell line was obtained from the tumor bank of the National Cancer Institute of the former USSR, WONZ, Moscow (Naundorf H. Rewasowa E. Fichtner I et al. Characterization of two human mammary carcinomas, MT-1 and MT-3, suitable for in vivo testing of ether lipids and their derivatives. Breast Cancer Res Treat. 1992; 23:87-95).
The cells are cryo-preserved within the EPO tumor bank. Cells were thawed, expanded by in vitro culture and transplanted s.c. as cell suspension (5×10^6 tumor cells/mouse in 200 μl).
On study day 0 each 5×10^6 tumor cells were transplanted s.c. into the flank of each mouse. The animals were monitored for tumor growth and when tumors were palpable, about day 7 after inoculation, mice were randomised into the treatment groups.
as §2
Individual tumor diameters were measured two times weekly with a calliper. Tumor volumes were calculated according to V=(length×(width)^2)/2. For calculation of the relative tumor volume (RTV) the tumor volumes at each measurement day were related to the day of first treatment. At each measurement day the median and mean tumor volumes per group and also the treated to control (T/C RTV) values in percent were calculated.
Mice were sacrificed when tumors reached a mean size above 1 cm^3 per group. On the day of necropsy mice were sacrificed by cervical dislocation and inspected for gross organ changes.
as §3

[3] = blood drawn three days after single i.v. treatment

**Q.** Which results are given for CC(=O)O[C@@]12CO[C@@H]1C[C@H](O)[C@@]1(C)C(=O)[C@H](O)C3=C(C)[C@@H](OC(=O)[C@H](O)[C@@H](NC(=O)OC(C)(C)C)c4ccccc4)C[C@@](O)([C@@H](OC(=O)c4ccccc4)[C@H]21)C3(C)C [Docetaxel]?
**A.** body weight development (in words) ([1]; after single i.v. treatment, FIG. 3): Body weight loss; leucopenia (in words) ([1]; after single i.v. treatment, table 5): slight but significant leucopoenia; Platelets × 10^6 at day 10 [1, 3]: 1418 ± 85 × 10^6; WBC × 10^6 at day 10 [1, 3]: 3.09 ± 0.76 × 10^6; effect on platelet counts (in words) ([1]; compared to saline+EtOH treated group): no significant effect on the platelet counts; tumor size at day 8 ([2]; day 8 after inoculation (day of dosing)): 0.0866 cm^3; Tumor volume (mean) cm^3/day 25 ([2]; single i.v. dose at day 8 after inoculation): 0.343 cm^3; tumor size at day 10 ([2]; single i.v. dose day 8): 0.1046 cm^3; tumor size at day 15 ([2]; single i.v. dose day 8): 0.1228 cm^3; tumor size at day 18 ([2]; single i.v. dose day 8): 0.1995 cm^3; tumor size at day 22 ([2]; single i.v. dose day 8): 0.2465 cm^3; tumor size at day 25 ([2]; single i.v. dose day 8): 0.3430 cm^3; inhibition of tumor growth (in words) ([2]; single i.v. treatment, compared to control group, table 8, FIG. 2): significant inhibition of tumor growth
